Tests used:
[1] = tested on: diarrhea caused by a chemotherapeutic agent in Balb/c mice; assay: Examples 343-381 (Table 6): oral versus intravenous CDK inhibitor, relief of diarrhea caused by a chemotherapeutic agent; assay type: in vivo;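 as to Relative remission rate: percent of treated mice whose diarrhea grade fell below chemotherapy-group average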
Summary of the method: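 Balb/c mice (10 per group) received the CDK inhibitor orally or by tail-vein injection, or vehicle, followed by a chemotherapeutic agent or its solvent. Diarrhea grade was scored daily.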

[2] = tested on: Chemotherapeutic agent-caused diarrhea models of Balb/c mice; assay: Examples 1-229 (Table 3): oral CDK inhibitor, relief of diarrhea caused by a chemotherapeutic agent; assay type: in vivo;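 also: percent of treated mice whose diarrhea grade fell below chemotherapy-group average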

CN1CCN(c2ccc(Nc3ncc4cc5n(c4n3)C3(CCCCC3)CNC5=O)nc2)CC1 [Trilaciclib (G1T28), Trilaciclib]
Relative remission rate ([1]; Example 348, Etoposide intraperitoneal injection 75 mg/kg single, CDK inhibitor intravenous injection 100 mg/kg single, 24 h before, cycle 8 days): 10% | Relative remission rate ([1]; Example 348, Etoposide intraperitoneal injection 75 mg/kg single, CDK inhibitor oral 100 mg/kg, 24 h before, cycle 8 days): 60% | Relative remission rate ([1]; Example 365, Carboplatin (CBP) intravenous injection 120 mg/kg single, CDK inhibitor intravenous injection 100 mg/kg single, 24 h before, cycle 10 days): 10% | Relative remission rate ([1]; Example 365, Carboplatin (CBP) intravenous injection 120 mg/kg single, CDK inhibitor oral 100 mg/kg single, 24 h before, cycle 10 days): 30% | Relative remission rate ([1]; Example 367, Topotecan (TP) intraperitoneal injection 10 mg/kg single, CDK inhibitor intravenous injection 200 mg/kg single, 24 h before, cycle 10 days): 10% | Relative remission rate ([1]; Example 367, Topotecan (TP) intraperitoneal injection 10 mg/kg single, CDK inhibitor oral 100 mg/kg single, 24 h before, cycle 10 days): 30% | Relative remission rate ([1]; Example 377, Gemcitabine (GEM) intramuscular injection 120 mg/kg single, CDK inhibitor intravenous injection 50 mg/kg single, 1 h before, cycle 8 days): 10% | Relative remission rate ([1]; Example 377, Gemcitabine (GEM) intramuscular injection 120 mg/kg single, CDK inhibitor oral 50 mg/kg single, 1 h before, cycle 8 days): 60% | Relative remission rate ([1]; Example 380, Gemcitabine and carboplatin intravenous injection 120 (G) 100 (C) mg/kg single, CDK inhibitor intravenous injection 100 mg/kg single, 0.5 h before, cycle 8 days): 20% | Relative remission rate ([1]; Example 380, Gemcitabine and carboplatin intravenous injection 120 (G) 100 (C) mg/kg single, CDK inhibitor oral 100 mg/kg single, 0.5 h before, cycle 8 days): 60% | Relative remission rate ([1]; Example 381, Gemcitabine and carboplatin intravenous injection 120 (G) 100 (C) mg/kg single, CDK inhibitor intravenous injection 100 mg/kg single, 24 h before, cycle 8 days): 10% | Relative remission rate ([1]; Example 381, Gemcitabine and carboplatin intravenous injection 120 (G) 100 (C) mg/kg single, CDK inhibitor oral 100 mg/kg single, 24 h before, cycle 8 days): 40% | relief of diarrhea by oral administration and injection administration ([1]; diarrhea caused by etoposide, etoposide in combination with cisplatin, carboplatin, gemcitabine, gemcitabine in combination with carboplatin, and topotecan, oral administration has the most significant effect): effectively relieve diarrhea | Relative remission rate (%) ([2]; Example 49, Oxaliplatin intraperitoneal injection 20 mg/kg single, CDK inhibitor oral 100 mg/kg single 0.5 h before, cycle 8 days): 60% | Relative remission rate (%) ([2]; Example 50, Oxaliplatin intraperitoneal injection 20 mg/kg single, CDK inhibitor oral 100 mg/kg single 1 h before, cycle 8 days): 50% | Relative remission rate (%) ([2]; Example 51, Oxaliplatin intraperitoneal injection 20 mg/kg single, CDK inhibitor oral 100 mg/kg single 2 h before, cycle 8 days): 40% | Relative remission rate (%) ([2]; Example 52, Oxaliplatin intraperitoneal injection 20 mg/kg single, CDK inhibitor oral 100 mg/kg single 3 h before, cycle 8 days): 60% | Relative remission rate (%) ([2]; Example 53, Oxaliplatin intraperitoneal injection 20 mg/kg single, CDK inhibitor oral 100 mg/kg single 4 h before, cycle 8 days): 50% | Relative remission rate (%) ([2]; Example 54, Oxaliplatin intraperitoneal injection 20 mg/kg single, CDK inhibitor oral 100 mg/kg single 5 h before, cycle 8 days): 30% | Relative remission rate (%) ([2]; Example 55, Oxaliplatin intraperitoneal injection 20 mg/kg single, CDK inhibitor oral 100 mg/kg single 6 h before, cycle 8 days): 80% | Relative remission rate (%) ([2]; Example 56, Oxaliplatin intraperitoneal injection 20 mg/kg single, CDK inhibitor oral 100 mg/kg single 7 h before, cycle 8 days): 60% | Relative remission rate (%) ([2]; Example 57, Oxaliplatin intraperitoneal injection 20 mg/kg single, CDK inhibitor oral 100 mg/kg single 8 h before, cycle 8 days): 60% | Relative remission rate (%) ([2]; Example 58, Oxaliplatin intraperitoneal injection 20 mg/kg single, CDK inhibitor oral 100 mg/kg single 9 h before, cycle 8 days): 80% | Relative remission rate (%) ([2]; Example 59, Oxaliplatin intraperitoneal injection 20 mg/kg single, CDK inhibitor oral 100 mg/kg single 10 h before, cycle 8 days): 70% | Relative remission rate (%) ([2]; Example 60, Oxaliplatin intraperitoneal injection 20 mg/kg single, CDK inhibitor oral 100 mg/kg single 11 h before, cycle 8 days): 70% | Relative remission rate (%) ([2]; Example 61, Oxaliplatin intraperitoneal injection 20 mg/kg single, CDK inhibitor oral 100 mg/kg single 12 h before, cycle 8 days): 50% | Relative remission rate (%) ([2]; Example 62, Oxaliplatin intraperitoneal injection 20 mg/kg single, CDK inhibitor oral 100 mg/kg single 14 h before, cycle 8 days): 60% | Relative remission rate (%) ([2]; Example 63, Oxaliplatin intraperitoneal injection 20 mg/kg single, CDK inhibitor oral 100 mg/kg single 16 h before, cycle 8 days): 80% | Relative remission rate (%) ([2]; Example 64, Oxaliplatin intraperitoneal injection 20 mg/kg single, CDK inhibitor oral 100 mg/kg single 18 h before, cycle 8 days): 80% | Relative remission rate (%) ([2]; Example 65, Oxaliplatin intraperitoneal injection 20 mg/kg single, CDK inhibitor oral 100 mg/kg single 20 h before, cycle 8 days): 70% | Relative remission rate (%) ([2]; Example 66, Oxaliplatin intraperitoneal injection 20 mg/kg single, CDK inhibitor oral 100 mg/kg single 22 h before, cycle 8 days): 50% | Relative remission rate (%) ([2]; Example 67, Oxaliplatin intraperitoneal injection 20 mg/kg single, CDK inhibitor oral 100 mg/kg single 24 h before, cycle 8 days): 50% | Relative remission rate (%) ([2]; Example 68, Oxaliplatin intraperitoneal injection 20 mg/kg single, CDK inhibitor oral 100 mg/kg single 48 h before, cycle 8 days): 0% | Relative remission rate (%) ([2]; Example 127, Irinotecan (CPT-11) intramuscular injection 240 mg/kg single, CDK inhibitor oral 50 mg/kg single 1 h before, cycle 7 days): 70% | Relative remission rate (%) ([2]; Example 170, Gemcitabine (GEM) intraperitoneal injection 120 mg/kg single, CDK inhibitor oral 60 mg/kg single 0.5 h before, cycle 8 days): 50% | Relative remission rate (%) ([2]; Example 171, Gemcitabine (GEM) intraperitoneal injection 120 mg/kg single, CDK inhibitor oral 60 mg/kg single 1 h before, cycle 8 days): 50% | Relative remission rate (%) ([2]; Example 172, Gemcitabine (GEM) intraperitoneal injection 120 mg/kg single, CDK inhibitor oral 60 mg/kg single 2 h before, cycle 8 days): 40% | Relative remission rate (%) ([2]; Example 173, Gemcitabine (GEM) intraperitoneal injection 120 mg/kg single, CDK inhibitor oral 60 mg/kg single 4 h before, cycle 8 days): 60% | Relative remission rate (%) ([2]; Example 174, Gemcitabine (GEM) intraperitoneal injection 120 mg/kg single, CDK inhibitor oral 60 mg/kg single 6 h before, cycle 8 days): 50% | Relative remission rate (%) ([2]; Example 175, Gemcitabine (GEM) intraperitoneal injection 120 mg/kg single, CDK inhibitor oral 60 mg/kg single 8 h before, cycle 8 days): 50% | Relative remission rate (%) ([2]; Example 176, Gemcitabine (GEM) intraperitoneal injection 120 mg/kg single, CDK inhibitor oral 60 mg/kg single 10 h before, cycle 8 days): 50% | Relative remission rate (%) ([2]; Example 177, Gemcitabine (GEM) intraperitoneal injection 120 mg/kg single, CDK inhibitor oral 60 mg/kg single 12 h before, cycle 8 days): 40% | Relative remission rate (%) ([2]; Example 178, Gemcitabine (GEM) intraperitoneal injection 120 mg/kg single, CDK inhibitor oral 60 mg/kg single 14 h before, cycle 8 days): 60% | Relative remission rate (%) ([2]; Example 193, Gemcitabine (GEM) oral administration 300 mg/kg single, CDK inhibitor oral 200 mg/kg single, 2 h before, 8 days): 60% | Relative remission rate (%) ([2]; Example 227, Topotecan intravenous injection 20 mg/kg single, CDK inhibitor oral 100 mg/kg single, 0.5 h before, 14 days): 70%

— US20240293413A1, “COMPOUND AND METHOD FOR TREATING CHEMOTHERAPY-RELATED GASTROINTESTINAL SIDE EFFECTS” (ONQUALITY PHARMACEUTICALS CHINA LTD., priority 2021, published 2024)
